Measurements published in PMC4552745, “Novel Gallate Triphenylphosphonium Derivatives with Potent Antichagasic Activity” (PLoS ONE, 2015).

What was measured:
[1] = system: mouse; set-up: method as in PMID 24568614; conditions: 15 mg/kg; cited from earlier work
[2] = system: T. cruzi trypomastigotes mitochondrial transmembrane potential (ΔΨm); assay: Mitochondrial membrane potential assessment by JC-1; type: cell-based, Trypanosoma cruzi; conditions: 1 μM, 2 hours, Fig 5A bottom panel; FCCP 100 μM positive control
Experimental: For the determination of mitochondrial membrane potential by JC-1, we adapted the method described by Cossariza and Savioli (2001). In total, 5 x 10^6 trypomastigotes were seeded in 24-well plates in 1 mL of RPMI medium without FBS. The parasites were exposed to 0.1 or 1 μM of the different TPP^+ derivatives for 2 hours; alternatively, the parasites were exposed to 100 μM FCCP (Sigma Aldrich, USA) for 15 min as a positive control of the uncoupling of mitochondrial respiration. The cells were then washed with 500 μL of PBS and centrifuged at 1500 x g for 5 min. The parasites were then resuspended in 1 mL of PBS at 37°C. JC-1 (Molecular Probes, Applied Biosytems, USA) 1 mg/mL in DMSO was added at a final concentration of 5 μg/mL, and the mixtures were incubated for 15 min at 37°C in the dark. Next, the samples were centrifuged at 1500 x g for 5 min, and the supernatants, which contained unincorporated JC-1, were discarded. The pellet was suspended in PBS (1 mL), and fluorescence was measured using a FACSAria-III flow cytometer (BD Biosciences, USA). We used 488 nm as the excitation wavelength; the emission of JC-1 monomers was detected using the FITC filter (530/30), and the JC-1 aggregates were detected using the PE filter (585/42). Each measurement involved 5,000 events. The data were analyzed using FACSDiva 6.1 software.

[3] = system: T. cruzi trypomastigotes (Y strain) mitochondrial permeability transition pore; assay: Mitochondrial permeability transition pore opening (calcein AM / CoCl2); type: cell-based, Trypanosoma cruzi; conditions: 1 hour, Fig 6B
Experimental: The opening of mitochondrial permeability transition pores was assessed using the calcein AM probe, adapting the method described by Huang et al (2014). Calcein-AM is a lipophilic probe that can enter the cell, including the mitochondria, and is then cleaved by cellular esterases, releasing the fluorescent probe calcein. T. cruzi trypomastigotes (Y strain, 5 x 10^6 parasites/mL) were stained with 100 nM calcein AM (Molecular Probes, Applied Biosytems, USA) and incubated at 37°C for 15 min in the presence of […] of CoCl2 to quench the cytosolic fluorescence of calcein. Then, the parasites were washed with PBS and resuspended in RPMI medium, without phenol red, supplemented with 0.3 mM of Ca^+2. The parasites were then seeded in 24-well plates and exposed to the different compounds (TPP^+-C8, TPP^+-C10, TPP^+-C11, and TPP^+-C12) at 1 or 5 μM for 1 hour. As a positive control, one group was exposed to ionomycin (0.5 μM). The samples were measured using a FACS Aria III flow cytometer (BD Biosciences, USA) with the 494/517 filter to detect calcein fluorescence. For every measurement, 5,000 events were recorded. The raw flow cytometry data were analyzed using FACSDiva 6.1 software (BD Biosciences). The results were analyzed using the median fluorescence intensity (MFI) from the frequency histograms. Thus, we used the median intensity of the control group (parasites incubated with calcein AM and CoCl2) to establish 100% of mitochondrial fluorescence, thereby establishing percent ratios between the treatment groups and the control.

O=C(OCCCCCCCCCC[P+](c1ccccc1)(c1ccccc1)c1ccccc1)c1cc(O)c(O)c(O)c1.[Br-] [TPP^+-C10, triphenyl(10-((3,4,5-trihydroxybenzoyl)oxy)-decyl) phosphonium bromide]
safety in mouse models [1]: safe | JC-1 red fluorescence (aggregates) [2]: induced mitochondrial changes, though to a lower extent than FCCP | mitochondrial calcein fluorescence (median fluorescence intensity) ([3]; 5 μM): 22 % of the control

O=C(OCCCCCCCCCCCC[P+](c1ccccc1)(c1ccccc1)c1ccccc1)c1cc(O)c(O)c(O)c1.[Br-] [TPP^+-C12, triphenyl(12-((3,4,5-trihydroxybenzoyl)oxy)-dodecyl) phosphonium bromide]
JC-1 red fluorescence (aggregates) [2]: induced mitochondrial changes, though to a lower extent than FCCP | mitochondrial calcein fluorescence (median fluorescence intensity) ([3]; 1 μM): 29 % of the control | mitochondrial calcein fluorescence (median fluorescence intensity) ([3]; 5 μM): 20 % of the control
